This is an account of results in PMC4844575, “The influence of different metal-chelate conjugates of pentixafor on the CXCR4 affinity” (EJNMMI Research, 2016).

Where a SMILES comes first, the peptide text is derived from it. Side-chain parts run from the residue outwards. [ ]: non-standard residue; d: D form. The star is where a group is joined. DFO(CSNHC6H4NHCS) = CC(=O)N(O)CCCCCNC(=O)CCC(=O)N(O)CCCCCNC(=O)CCC(=O)N(O)CCCCCNC(=S)Nc1ccc(NC(=S)*)cc1; DOTAGA = O=C(O)CN1CCN(CC(=O)O)CCN(C(CCC(=O)*)C(=O)O)CCN(CC(=O)O)CC1; DOTA = O=C(O)CN1CCN(CC(=O)O)CCN(CC(=O)*)CCN(CC(=O)O)CC1; NODAGA = O=C(O)CN1CCN(CC(=O)O)CCN(C(CCC(=O)*)C(=O)O)CC1; X2 = O=C(O)CN1CCN(CC(=O)O)CCN(Cc2ccc(NC(=S)*)cc2)CC1; NOTA = O=C(O)CN1CCN(CC(=O)O)CCN(CC(=O)*)CC1; 2Nal = N[C@@H](Cc1ccc2ccccc2c1)C(=O)O; dNMeOrn = CN[C@H](CCCN)C(=O)O; 4Amb = NCc1ccc(C(=O)O)cc1

T1 sequence (P61073 whole entry): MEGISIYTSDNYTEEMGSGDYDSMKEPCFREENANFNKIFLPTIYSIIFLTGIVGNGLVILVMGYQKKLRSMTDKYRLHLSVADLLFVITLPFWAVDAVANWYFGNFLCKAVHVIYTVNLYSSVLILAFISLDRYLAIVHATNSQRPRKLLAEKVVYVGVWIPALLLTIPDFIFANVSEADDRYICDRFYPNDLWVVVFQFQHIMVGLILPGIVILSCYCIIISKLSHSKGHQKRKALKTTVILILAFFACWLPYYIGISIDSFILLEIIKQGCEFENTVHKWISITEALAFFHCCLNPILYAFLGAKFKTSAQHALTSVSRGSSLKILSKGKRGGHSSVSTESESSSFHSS

The first series relates to hCXCR4.
Assay: not given
Particulars: read-out: affinity towards hCXCR4; cited from earlier work.
For the compound “cyclo(-D-Tyr-N-Me-D-Orn(aminomethylbenzoyl (AMB)-DOTA)-L-Arg-L-2-Nal-Gly-) [[^68Ga]pentixafor]”, the IC50 was 0.005 µM.

The next series concerns OH1 human small cell lung cancer tumor-bearing mice.
Assay: not given
The following applies: mouse, in vivo, 1 h; cited from earlier work.
Take “cyclo(-D-Tyr-N-Me-D-Orn(aminomethylbenzoyl (AMB)-DOTA)-L-Arg-L-2-Nal-Gly-) [[^68Ga]pentixafor]”: the “uptake in CXCR4-expressing tissue (tumor)” value is listed as 6.16 % ± 1.16 % ID/g.

A further series has as its target T1, CXCR4 (Homo sapiens, UniProt P61073).
T1 construct: endogenous in cells; host or cells: Jurkat T-cell leukemia cells
The experiment in a line: competitive binding assay on Jurkat cells with [125I]FC131 as radioligand.
Details: not given
As for the experimental part: For in vitro experiments, the Jurkat T - cell line was used. […] The cell line was cultured at 37 °C in a humidified atmosphere with 5 % CO2 and passaged two to three times a week, depending on the cell count.
Jurkat cells (4 × 10^5 cells per vial) were incubated with the respective peptide of interest at the final concentrations ranging from 10^−11 to 10^−5 M and app. […] The total sample volume was 250 μL. After an incubation time of 120 min, the vials were centrifuged at 1300 rpm (Heraeus Megafuge, Thermo) for 3 min and the supernatant was removed. The cells were washed twice with 200 μL ice-cold Hank’s balanced salt solution (HBSS). After each washing step, the samples were centrifuged and the supernatant removed. Finally, the amount of displaced and bound radioligand in the combined fractions of the supernatant and the cell pellet was quantified. The half maximal inhibitory concentration (IC50) values were determined using GraphPad Prism software.
Turning to `CN1C(=O)[C@@H](Cc2ccc(O)cc2)NC(=O)CNC(=O)[C@H](Cc2ccc3ccccc3c2)NC(=O)[C@H](CCCNC(=N)N)NC(=O)[C@H]1CCCNC(=O)c1ccc(CNC(=O)CCC(C(=O)O)N2CCN(CC(=O)O)CCN(CC(=O)O)CCN(CC(=O)O)CC2)cc1` (some centres unmarked) [Compound 2] (cyclo([2Nal]G[dY][dNMeOrn]([4Amb-DOTAGA])R)), the IC50 turned out to be 0.654 ± 0.263 µM.
Still for that read-out and setting: under `CN1C(=O)[C@@H](Cc2ccc(O)cc2)NC(=O)CNC(=O)[C@H](Cc2ccc3ccccc3c2)NC(=O)[C@H](CCCNC(=N)N)NC(=O)[C@H]1CCCNC(=O)c1ccc(CNC(=O)CN2CCN(CC(=O)O)CCN(CC(=O)O)CC2)cc1` [Compound 3] (cyclo([2Nal]G[dY][dNMeOrn]([4Amb-NOTA])R)) stands 0.253 ± 0.049 µM.
The same measure, in the same setting: next, `CN1C(=O)[C@@H](Cc2ccc(O)cc2)NC(=O)CNC(=O)[C@H](Cc2ccc3ccccc3c2)NC(=O)[C@H](CCCNC(=N)N)NC(=O)[C@H]1CCCNC(=O)c1ccc(CNC(=O)CCC(C(=O)O)N2CCN(CC(=O)O)CCN(CC(=O)O)CC2)cc1` (some centres unmarked) [Compound 4] (cyclo([2Nal]G[dY][dNMeOrn]([4Amb-NODAGA])R)): 0.275 ± 0.106 µM; `CN1C(=O)[C@@H](Cc2ccc(O)cc2)NC(=O)CNC(=O)[C@H](Cc2ccc3ccccc3c2)NC(=O)[C@H](CCCNC(=N)N)NC(=O)[C@H]1CCCNC(=S)Nc1ccc(CN2CCN(CC(=O)O)CCN(CC(=O)O)CC2)cc1` [Compound 5] (cyclo([2Nal]G[dY][dNMeOrn](X2)R)): 0.115 ± 0.024 µM.
The same measure, in the same setting: under `CN1C(=O)[C@@H](Cc2ccc(O)cc2)NC(=O)CNC(=O)[C@H](Cc2ccc3ccccc3c2)NC(=O)[C@H](CCCNC(=N)N)NC(=O)[C@H]1CCCNC(=O)c1ccc(CNC(=S)Nc2ccc(CC(CN(CCN(CC(=O)O)CC(=O)O)CC(=O)O)N(CC(=O)O)CC(=O)O)cc2)cc1` (some centres unmarked) [Compound 7] stands 0.2 ± 0.073 µM.
Compound `CC(=O)N(O)CCCCCNC(=O)CCC(=O)N(O)CCCCCNC(=O)CCC(=O)N(O)CCCCCNC(=S)Nc1ccc(NC(=S)NCc2ccc(C(=O)NCCC[C@@H]3C(=O)N[C@@H](CCCNC(=N)N)C(=O)N[C@@H](Cc4ccc5ccccc5c4)C(=O)NCC(=O)N[C@H](Cc4ccc(O)cc4)C(=O)N3C)cc2)cc1` [Compound 8] (cyclo([2Nal]G[dY][dNMeOrn]([4Amb-DFO(CSNHC6H4NHCS)])R)) came in with an IC50 of 0.105 ± 0.035 µM.

Staying with this series, now noted: Jurkat T-cells, 4 × 10^5 cells per vial, app. 0.1 nM [125I]FC131, 120 min incubation, mean ± SD (n = 3).
For `CN1C(=O)[C@@H](Cc2ccc(O)cc2)NC(=O)CNC(=O)[C@H](Cc2ccc3ccccc3c2)NC(=O)[C@H](CCCNC(=N)N)NC(=O)[C@H]1CCCNC(=O)c1ccc(CNC(=O)CN2CCN(CC(=O)O)CCN(CC(=O)O)CCN(CC(=O)O)CC2)cc1` [[^natBi^3+]1] [metal not drawn] (cyclo([dY][dNMeOrn]([4Amb-DOTA])R[2Nal]G)), the IC50 amounted to 0.0221 ± 0.007 µM.
`CN1C(=O)[C@@H](Cc2ccc(O)cc2)NC(=O)CNC(=O)[C@H](Cc2ccc3ccccc3c2)NC(=O)[C@H](CCCNC(=N)N)NC(=O)[C@H]1CCCNC(=O)c1ccc(CNC(=O)CCC(C(=O)O)N2CCN(CC(=O)O)CCN(CC(=O)O)CCN(CC(=O)O)CC2)cc1` (some centres unmarked) [[^natBi^3+]2] [metal not drawn] (cyclo([2Nal]G[dY][dNMeOrn]([4Amb-DOTAGA])R)) had an IC50 of 0.0294 ± 0.0076 µM.
Same read-out and setting: under `CN1C(=O)[C@@H](Cc2ccc(O)cc2)NC(=O)CNC(=O)[C@H](Cc2ccc3ccccc3c2)NC(=O)[C@H](CCCNC(=N)N)NC(=O)[C@H]1CCCNC(=O)c1ccc(CNC(=O)CN2CCN(CC(=O)O)CCN(CC(=O)O)CCN(CC(=O)O)CC2)cc1` [[^natCu^2+]1] [metal not drawn] (cyclo([dY][dNMeOrn]([4Amb-DOTA])R[2Nal]G)) stands 0.131 ± 0.011 µM; under `CN1C(=O)[C@@H](Cc2ccc(O)cc2)NC(=O)CNC(=O)[C@H](Cc2ccc3ccccc3c2)NC(=O)[C@H](CCCNC(=N)N)NC(=O)[C@H]1CCCNC(=O)c1ccc(CNC(=O)CCC(C(=O)O)N2CCN(CC(=O)O)CCN(CC(=O)O)CCN(CC(=O)O)CC2)cc1` (some centres unmarked) [[^natCu^2+]2] [metal not drawn] (cyclo([2Nal]G[dY][dNMeOrn]([4Amb-DOTAGA])R)), 1.16 ± 0.22 µM.
Same read-out and setting: next, `CN1C(=O)[C@@H](Cc2ccc(O)cc2)NC(=O)CNC(=O)[C@H](Cc2ccc3ccccc3c2)NC(=O)[C@H](CCCNC(=N)N)NC(=O)[C@H]1CCCNC(=O)c1ccc(CNC(=O)CN2CCN(CC(=O)O)CCN(CC(=O)O)CC2)cc1` [[^natCu^2+]3] [metal not drawn] (cyclo([2Nal]G[dY][dNMeOrn]([4Amb-NOTA])R)): 0.0461 ± 0.026 µM; `CN1C(=O)[C@@H](Cc2ccc(O)cc2)NC(=O)CNC(=O)[C@H](Cc2ccc3ccccc3c2)NC(=O)[C@H](CCCNC(=N)N)NC(=O)[C@H]1CCCNC(=O)c1ccc(CNC(=O)CCC(C(=O)O)N2CCN(CC(=O)O)CCN(CC(=O)O)CC2)cc1` (some centres unmarked) [[^natCu^2+]4] [metal not drawn] (cyclo([2Nal]G[dY][dNMeOrn]([4Amb-NODAGA])R)): 0.343 ± 0.01 µM; `CN1C(=O)[C@@H](Cc2ccc(O)cc2)NC(=O)CNC(=O)[C@H](Cc2ccc3ccccc3c2)NC(=O)[C@H](CCCNC(=N)N)NC(=O)[C@H]1CCCNC(=O)c1ccc(CNC(=O)CN2CCN(CC(=O)O)CCN(CC(=O)O)CC2)cc1` [[^natF]AlF-3] (cyclo([2Nal]G[dY][dNMeOrn]([4Amb-NOTA])R)): 0.22 ± 0.057 µM.
On the same count and under the same terms, next, `CN1C(=O)[C@@H](Cc2ccc(O)cc2)NC(=O)CNC(=O)[C@H](Cc2ccc3ccccc3c2)NC(=O)[C@H](CCCNC(=N)N)NC(=O)[C@H]1CCCNC(=S)Nc1ccc(CN2CCN(CC(=O)O)CCN(CC(=O)O)CC2)cc1` [[^natF]AlF-5] (cyclo([2Nal]G[dY][dNMeOrn](X2)R)): 0.329 ± 0.049 µM; `CN1C(=O)[C@@H](Cc2ccc(O)cc2)NC(=O)CNC(=O)[C@H](Cc2ccc3ccccc3c2)NC(=O)[C@H](CCCNC(=N)N)NC(=O)[C@H]1CCCNC(=O)c1ccc(CNC(=O)CCC(C(=O)O)N2CCN(CC(=O)O)CCN(CC(=O)O)CCN(CC(=O)O)CC2)cc1` (some centres unmarked) [[^natGa^3+]2] [metal not drawn] (cyclo([2Nal]G[dY][dNMeOrn]([4Amb-DOTAGA])R)): 0.38 ± 0.102 µM.
Compound `CN1C(=O)[C@@H](Cc2ccc(O)cc2)NC(=O)CNC(=O)[C@H](Cc2ccc3ccccc3c2)NC(=O)[C@H](CCCNC(=N)N)NC(=O)[C@H]1CCCNC(=O)c1ccc(CNC(=O)CN2CCN(CC(=O)O)CCN(CC(=O)O)CC2)cc1` [[^natGa^3+]3] [metal not drawn] (cyclo([2Nal]G[dY][dNMeOrn]([4Amb-NOTA])R)) showed an IC50 of 0.0178 ± 0.0077 µM.
The same measure, in the same setting: next, `CN1C(=O)[C@@H](Cc2ccc(O)cc2)NC(=O)CNC(=O)[C@H](Cc2ccc3ccccc3c2)NC(=O)[C@H](CCCNC(=N)N)NC(=O)[C@H]1CCCNC(=O)c1ccc(CNC(=O)CCC(C(=O)O)N2CCN(CC(=O)O)CCN(CC(=O)O)CC2)cc1` (some centres unmarked) [[^natGa^3+]4] [metal not drawn] (cyclo([2Nal]G[dY][dNMeOrn]([4Amb-NODAGA])R)): 0.342 ± 0.072 µM.
`CN1C(=O)[C@@H](Cc2ccc(O)cc2)NC(=O)CNC(=O)[C@H](Cc2ccc3ccccc3c2)NC(=O)[C@H](CCCNC(=N)N)NC(=O)[C@H]1CCCNC(=O)c1ccc(CNC(=O)CN2CCN(CC(=O)O)CCN(CC(=O)O)CCN(CC(=O)O)CC2)cc1` [[^natLu^3+]1] [metal not drawn] (cyclo([dY][dNMeOrn]([4Amb-DOTA])R[2Nal]G)) registered an IC50 of 0.0409 ± 0.012 µM.
Still for that read-out and setting: under `CN1C(=O)[C@@H](Cc2ccc(O)cc2)NC(=O)CNC(=O)[C@H](Cc2ccc3ccccc3c2)NC(=O)[C@H](CCCNC(=N)N)NC(=O)[C@H]1CCCNC(=O)c1ccc(CNC(=O)CCC(C(=O)O)N2CCN(CC(=O)O)CCN(CC(=O)O)CCN(CC(=O)O)CC2)cc1` (some centres unmarked) [[^natLu^3+]2] [metal not drawn] (cyclo([2Nal]G[dY][dNMeOrn]([4Amb-DOTAGA])R)) stands 0.188 ± 0.0028 µM.
On the same count and under the same terms, under `CN1C(=O)[C@@H](Cc2ccc(O)cc2)NC(=O)CNC(=O)[C@H](Cc2ccc3ccccc3c2)NC(=O)[C@H](CCCNC(=N)N)NC(=O)[C@H]1CCCNC(=O)c1ccc(CNC(=O)CCC(C(=O)O)N2CCN(CC(=O)O)CCN(CC(=O)O)CCN(CC(=O)O)CC2)cc1` (some centres unmarked) [[^natY^3+]2] [metal not drawn] (cyclo([2Nal]G[dY][dNMeOrn]([4Amb-DOTAGA])R)) stands 0.126 ± 0.089 µM; under `CC(=O)N(O)CCCCCNC(=O)CCC(=O)N(O)CCCCCNC(=O)CCC(=O)N(O)CCCCCNC(=S)Nc1ccc(NC(=S)NCc2ccc(C(=O)NCCC[C@@H]3C(=O)N[C@@H](CCCNC(=N)N)C(=O)N[C@@H](Cc4ccc5ccccc5c4)C(=O)NCC(=O)N[C@H](Cc4ccc(O)cc4)C(=O)N3C)cc2)cc1` [[^natZr^4+]8, metal not drawn] (cyclo([2Nal]G[dY][dNMeOrn]([4Amb-DFO(CSNHC6H4NHCS)])R)), 0.148 ± 0.027 µM.
